Tested on: prenyl-protein transferases
Experiment: the disclosed assays (not specified which)

With `Cc1cccc(Oc2cc(Cn3c(CN4CCN(C(=O)OC(C)(C)C)CC4)cnc3C)ccc2C#N)n1` [Example 1 Step G, 1-(tert-butoxycarbonyl)-4-[1-(3-((6-methyl-2-pyridyl)oxy)-4-cyanobenzyl)-2-methyl-5-imidazolylmethyl]piperazine] the “activity in the disclosed assays” value was “active”.

— patent publication US20020052363A1, “Inhibitors of prenyl-protein transferase” (priority 2000, published 2002)
